Data from article PMC12722308, “A phase 1 study of orally administered 5-fluoro-2’-deoxycytidine with tetrahydrouridine in patients with refractory solid tumors” (Cancer Chemotherapy and Pharmacology, 2025).
Marks after values point to notes of the source that are not given here.

Key:
[1] = Plasma pharmacokinetics by LC-MS/MS; format: in vivo, human
Protocol: (§1) Blood specimens for PK analysis were collected on Cycle 1 Day 1 (C1D1) prior to THU administration and then at 15, 30, and 45 min and 1, 2, 3, 4, 5, and 6 h after THU administration, as well as on C1D2 and C1D3 prior to and 2 h after THU administration. Urine specimens for PK analysis were collected on C1D1 prior to treatment and then at every void from 0 to 24 h after THU administration. All specimens for PK analysis were processed and analyzed by LC-MS/MS as described previously, and Phoenix WinNonlin software was used for data analysis.

[2] = Urinary excretion by LC-MS/MS; format: in vivo, human
Protocol: as §1

[3] = DL2: FdCyd 60 mg + THU 3000 mg oral, FU n=3, geom. mean (geom. SD)
[4] = DL3: FdCyd 90 mg + THU 3000 mg oral, FU n=3, geom. mean (geom. SD)
[5] = DL4: FdCyd 120 mg + THU 3000 mg oral, FU n=2, geom. mean (geom. SD)
[6] = DL5-9: FdCyd 160 mg + THU 3000 mg oral, FU n=29, geom. mean (geom. SD)
[7] = DL10: FdCyd 60 mg + THU 6000 mg oral, FU n=8, geom. mean (geom. SD)
[8] = DL11: FdCyd 80 mg + THU 6000 mg oral, FU n=3, geom. mean (geom. SD)
[9] = All FdCyd doses + THU 3000 mg oral (n=44), geom. mean (geom. SD)
[10] = All FdCyd doses + THU 6000 mg oral (n=11), geom. mean (geom. SD)
[11] = DL1: FdCyd 30 mg + THU 3000 mg oral (n=3), geom. mean (geom. SD)
[12] = DL1: FdCyd 30 mg + THU 3000 mg oral (n=3), no SD given
[13] = DL2: FdCyd 60 mg + THU 3000 mg oral (n=4), geom. mean (geom. SD)
[14] = DL3: FdCyd 90 mg + THU 3000 mg oral (n=3), geom. mean (geom. SD)
[15] = DL4: FdCyd 120 mg + THU 3000 mg oral (n=3), geom. mean (geom. SD)
[16] = DL5-9: FdCyd 160 mg + THU 3000 mg oral (n=31), geom. mean (geom. SD)
[17] = DL10: FdCyd 60 mg + THU 6000 mg oral (n=8), geom. mean (geom. SD)
[18] = DL11: FdCyd 80 mg + THU 6000 mg oral (n=3), geom. mean (geom. SD)
[19] = Total, all dose levels (n=55), geom. mean (geom. SD)

## O=c1[nH]cc(F)c(=O)[nH]1 [FU]
[1]; [3]
  FU AUC0-inf: 0.019 (1.70) mg/L•h
  FU Cmax: 0.0042 (1.2) mg/L
[1]; [4]
  FU AUC0-inf: 0.026 (1.54) mg/L•h
  FU Cmax: 0.0055 (1.1) mg/L
[1]; [5]
  FU AUC0-inf: 0.032 (1.12) mg/L•h
  FU Cmax: 0.0082 (1.4) mg/L
[1]; [6]
  FU AUC0-inf: 0.052 (1.66) mg/L•h
  FU Cmax: 0.015 (1.6) mg/L
[1]; [7]
  FU AUC0-inf: 0.033 (1.30) mg/L•h
  FU Cmax: 0.011 (1.3) mg/L
[1]; [8]
  FU AUC0-inf: 0.044 (1.36) mg/L•h
  FU Cmax: 0.010 (1.1) mg/L
[2]; All FdCyd doses + THU 3000 mg, N=27, geom. mean (geom. SD)
  FU urinary excretion over 0-24 hours of day 1: 0.37 (2.0) % dose
[2]; All FdCyd doses + THU 6000 mg, N=9, geom. mean (geom. SD)
  FU urinary excretion over 0-24 hours of day 1: 0.27 (2.5) % dose
[2]; DL1: FdCyd 30 mg + THU 3000 mg, N=1
  FU urinary excretion over 0-24 hours of day 1: 0.20 (-) % dose
[2]; DL2: FdCyd 60 mg + THU 3000 mg, N=1
  FU urinary excretion over 0-24 hours of day 1: 0.51 (-) % dose
[2]; DL4: FdCyd 120 mg + THU 3000 mg, N=1
  FU urinary excretion over 0-24 hours of day 1: 0.34 (-) % dose
[2]; DL5-9: FdCyd 160 mg + THU 3000 mg, N=24, geom. mean (geom. SD)
  FU urinary excretion over 0-24 hours of day 1: 0.38 (2.1) % dose
[2]; DL10: FdCyd 60 mg + THU 6000 mg, N=6, geom. mean (geom. SD)
  FU urinary excretion over 0-24 hours of day 1: 0.32 (2.5) % dose
[2]; DL11: FdCyd 80 mg + THU 6000 mg, N=3, geom. mean (geom. SD)
  FU urinary excretion over 0-24 hours of day 1: 0.21 (3.0) % dose

## O=c1[nH]c(=O)n([C@H]2C[C@H](O)[C@@H](CO)O2)cc1F [FdUrd]
[1]; [9]
  FdUrd AUC/Dose: 0.55 (1.6)^d µg/L•h/mg
  FdUrd Cmax/Dose: 0.19 (1.6)^c µg/L / mg
  FdUrd t½: 1.3 (1.9) h
  FdUrd/FdCyd metabolic ratio, AUC0-inf: 0.068 (2.1)^f
  FdUrd/FdCyd metabolic ratio, Cmax: 0.048 (2.0)^e
[1]; [10]
  FdUrd AUC/Dose: 0.80 (1.6)^d µg/L•h/mg
  FdUrd Cmax/Dose: 0.34 (1.5)^c µg/L / mg
  FdUrd t½: 1.2 (1.6) h
  FdUrd/FdCyd metabolic ratio, AUC0-inf: 0.067 (1.4)^f
  FdUrd/FdCyd metabolic ratio, Cmax: 0.051 (1.9)^e
[1]; [11]
  FdUrd Cmax: 0.012 (1.4) mg/L
  FdUrd Cmax/Dose: 0.41 (1.4) µg/L / mg
  FdUrd/FdCyd metabolic ratio, Cmax: 0.099 (1.6)
[1]; [12]
  FdUrd AUC0-inf: 0.047 (-) mg/L•h
  FdUrd AUC/Dose: 1.58 (-) µg/L•h/mg
  FdUrd t½: 3.3 (-) h
  FdUrd/FdCyd metabolic ratio, AUC0-inf: 0.069 (-)
[1]; [13]
  FdUrd AUC0-inf: 0.044 (1.72) mg/L•h
  FdUrd AUC/Dose: 0.73 (1.7) µg/L•h/mg
  FdUrd Cmax: 0.011 (1.7) mg/L
  FdUrd Cmax/Dose: 0.19 (1.7) µg/L / mg
  FdUrd t½: 1.8 (3.4) h
  FdUrd/FdCyd metabolic ratio, AUC0-inf: 0.070 (3.5)
  FdUrd/FdCyd metabolic ratio, Cmax: 0.039 (2.3)
[1]; [14]
  FdUrd AUC0-inf: 0.043 (1.20) mg/L•h
  FdUrd AUC/Dose: 0.48 (1.2) µg/L•h/mg
  FdUrd Cmax: 0.015 (1.2) mg/L
  FdUrd Cmax/Dose: 0.16 (1.2) µg/L / mg
  FdUrd t½: 1.1 (1.3) h
  FdUrd/FdCyd metabolic ratio, AUC0-inf: 0.041 (1.7)
  FdUrd/FdCyd metabolic ratio, Cmax: 0.028 (1.7)
[1]; [15]
  FdUrd AUC0-inf: 0.054 (1.97) mg/L•h
  FdUrd AUC/Dose: 0.45 (2.0) µg/L•h/mg
  FdUrd Cmax: 0.016 (1.6) mg/L
  FdUrd Cmax/Dose: 0.14 (1.6) µg/L / mg
  FdUrd t½: 1.7 (1.2) h
  FdUrd/FdCyd metabolic ratio, AUC0-inf: 0.034 (1.3)
  FdUrd/FdCyd metabolic ratio, Cmax: 0.018 (1.3)
[1]; [16]
  FdUrd AUC0-inf: 0.084 (1.55) mg/L•h
  FdUrd AUC/Dose: 0.53 (1.6) µg/L•h/mg
  FdUrd Cmax: 0.031 (1.5) mg/L
  FdUrd Cmax/Dose: 0.20 (1.5) µg/L / mg
  FdUrd t½: 1.2 (1.7) h
  FdUrd/FdCyd metabolic ratio, AUC0-inf: 0.070 (1.8)
  FdUrd/FdCyd metabolic ratio, Cmax: 0.054 (1.9)
[1]; [17]
  FdUrd AUC0-inf: 0.047 (1.59) mg/L•h
  FdUrd AUC/Dose: 0.79 (1.6) µg/L•h/mg
  FdUrd Cmax: 0.023 (1.4) mg/L
  FdUrd Cmax/Dose: 0.38 (1.4) µg/L / mg
  FdUrd t½: 1.0 (1.5) h
  FdUrd/FdCyd metabolic ratio, AUC0-inf: 0.072 (1.4)
  FdUrd/FdCyd metabolic ratio, Cmax: 0.060 (1.8)
[1]; [18]
  FdUrd AUC0-inf: 0.068 (1.68) mg/L•h
  FdUrd AUC/Dose: 0.85 (1.7) µg/L•h/mg
  FdUrd Cmax: 0.019 (1.6) mg/L
  FdUrd Cmax/Dose: 0.24 (1.6) µg/L / mg
  FdUrd t½: 1.7 (1.5) h
  FdUrd/FdCyd metabolic ratio, AUC0-inf: 0.056 (1.2)
  FdUrd/FdCyd metabolic ratio, Cmax: 0.033 (1.8)
[1]; [19]
  FdUrd Cmax/Dose: 0.22 (1.6) µg/L / mg
  FdUrd t½: 1.3 (1.8) h
[2]; All FdCyd doses + THU 3000 mg, N=5, geom. mean (geom. SD)
  FdUrd urinary excretion over 0-24 hours of day 1: 0.053 (1.3) % dose
[2]; All FdCyd doses + THU 6000 mg, N=3, geom. mean (geom. SD)
  FdUrd urinary excretion over 0-24 hours of day 1: 0.10 (2.6) % dose
[2]; DL4: FdCyd 120 mg + THU 3000 mg, N=2, geom. mean (geom. SD)
  FdUrd urinary excretion over 0-24 hours of day 1: 0.064 (1.0) % dose
[2]; DL5-9: FdCyd 160 mg + THU 3000 mg, N=3, geom. mean (geom. SD)
  FdUrd urinary excretion over 0-24 hours of day 1: 0.047 (1.3) % dose
[2]; DL10: FdCyd 60 mg + THU 6000 mg, N=2, geom. mean (geom. SD)
  FdUrd urinary excretion over 0-24 hours of day 1: 0.14 (2.6) % dose
[2]; DL11: FdCyd 80 mg + THU 6000 mg, N=1
  FdUrd urinary excretion over 0-24 hours of day 1: 0.045 (-) % dose
